Patent publication US8148391B2 (Cephalon, Inc., priority 2006, dated 2012)
Like-named read-outs stand apart in the source and are kept apart here. Blank lines part the entries; values can stand above or below the compound they belong to.

Assays:
[1] = target: T1, baculovirus-expressed ALK (Homo sapiens, UniProt Q9UM73); experiment: ALK Kinase Assay (ELISA-type, time-resolved fluorescence); format: biochemical
T1 construct: host or cells: baculovirus expression system
Method in brief: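 Plates coated with phospholipase C-γ substrate (10 μg/mL in TBS); reaction started with 30 ng/ml ALK and run 15 min at 37° C. Phosphorylated substrate detected with Eu-N1-labeled PT66 antibody. IC50 from sigmoidal variable-slope fit of percent inhibition vs log concentration.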

[2] = target: T2, c-Met (cytoplasmic domain) (Homo sapiens, UniProt P08581); experiment: c-Met Kinase Assay (same methods as for ALK, with modifications); format: biochemical
T2 construct: 10 ng/mL c-Met (cytoplasmic domain, Invitrogen Corporation #PV3143); purchased Invitrogen Corporation PV3143
Method in brief: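 Plates were coated with phospholipase C-γ substrate (10 μg/mL) in TBS, and the reaction was started with 10 ng/mL c-Met cytoplasmic domain and run 15 min at 37 °C. Phosphoproduct was detected with Eu-N1-labelled PT66 antibody. IC50 came from a variable-slope sigmoidal fit of percent inhibition vs log concentration.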

[3] = 1 μM ATP (Km level), read-out: ALK Activity (ALK Kinase Inhibition, IC50)
[4] = 1 μM ATP (Km level), read-out: cMet Activity (c-Met Kinase Inhibition, IC50)
[5] = 1 μM ATP (Km level), 30 ng/ml ALK, 37° C., 15 minutes, read-out: ALK Activity (ALK kinase inhibition, IC50 class)
[6] = 1 μM ATP (Km level), 10 ng/mL c-Met, read-out: cMet Activity (c-Met kinase inhibition, IC50 class)
[7] = ALK kinase inhibition, 1 μM ATP (Km level), read-out: ALK Activity
[8] = c-Met kinase inhibition, 1 μM ATP (Km level), read-out: cMet Activity
[9] = ALK kinase inhibition, 1 μM ATP, read-out: ALK Activity
[10] = c-Met kinase inhibition, 1 μM ATP, read-out: cMet Activity

T1 sequence (Q9UM73 19-1620): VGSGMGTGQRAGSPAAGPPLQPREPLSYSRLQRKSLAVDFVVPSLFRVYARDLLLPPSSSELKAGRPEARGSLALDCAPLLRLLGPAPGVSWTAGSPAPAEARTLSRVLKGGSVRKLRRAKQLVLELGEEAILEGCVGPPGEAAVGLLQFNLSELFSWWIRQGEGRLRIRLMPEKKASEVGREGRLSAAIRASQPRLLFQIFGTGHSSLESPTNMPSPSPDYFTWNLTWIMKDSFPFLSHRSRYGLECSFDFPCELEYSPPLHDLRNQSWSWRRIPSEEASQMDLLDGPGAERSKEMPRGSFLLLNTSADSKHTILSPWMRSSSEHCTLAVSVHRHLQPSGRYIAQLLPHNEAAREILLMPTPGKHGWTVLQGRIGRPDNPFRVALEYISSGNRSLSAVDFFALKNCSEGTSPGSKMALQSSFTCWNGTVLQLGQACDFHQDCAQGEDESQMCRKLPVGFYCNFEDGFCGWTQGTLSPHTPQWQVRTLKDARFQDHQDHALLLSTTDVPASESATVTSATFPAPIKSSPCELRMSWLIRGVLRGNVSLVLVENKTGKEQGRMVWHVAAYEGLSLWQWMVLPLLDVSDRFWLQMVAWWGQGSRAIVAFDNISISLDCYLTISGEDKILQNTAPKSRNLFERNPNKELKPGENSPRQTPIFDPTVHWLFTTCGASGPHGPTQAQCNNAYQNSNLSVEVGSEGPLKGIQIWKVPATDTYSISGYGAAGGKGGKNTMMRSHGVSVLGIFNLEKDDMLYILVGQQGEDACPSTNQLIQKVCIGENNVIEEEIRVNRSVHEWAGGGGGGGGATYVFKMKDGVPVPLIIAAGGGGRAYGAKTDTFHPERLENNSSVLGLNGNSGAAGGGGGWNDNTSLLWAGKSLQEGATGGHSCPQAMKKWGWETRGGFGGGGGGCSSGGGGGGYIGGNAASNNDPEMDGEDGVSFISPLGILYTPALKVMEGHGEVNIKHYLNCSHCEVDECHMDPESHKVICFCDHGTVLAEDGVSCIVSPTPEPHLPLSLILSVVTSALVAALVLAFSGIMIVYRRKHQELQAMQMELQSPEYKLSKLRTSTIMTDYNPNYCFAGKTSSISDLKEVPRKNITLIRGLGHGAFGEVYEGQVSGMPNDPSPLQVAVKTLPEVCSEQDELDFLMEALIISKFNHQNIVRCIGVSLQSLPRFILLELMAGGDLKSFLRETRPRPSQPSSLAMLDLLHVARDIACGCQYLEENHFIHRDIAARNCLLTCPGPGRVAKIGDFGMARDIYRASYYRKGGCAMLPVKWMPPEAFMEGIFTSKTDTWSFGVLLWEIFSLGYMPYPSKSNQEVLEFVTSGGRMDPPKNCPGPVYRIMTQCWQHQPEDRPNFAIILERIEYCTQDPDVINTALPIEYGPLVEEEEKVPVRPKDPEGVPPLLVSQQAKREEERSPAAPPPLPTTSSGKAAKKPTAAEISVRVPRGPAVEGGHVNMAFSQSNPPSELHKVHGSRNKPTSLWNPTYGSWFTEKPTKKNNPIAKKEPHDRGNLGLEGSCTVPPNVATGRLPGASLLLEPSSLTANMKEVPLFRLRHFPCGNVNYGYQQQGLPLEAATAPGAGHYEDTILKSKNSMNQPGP
T2 sequence (P08581 956-1390 limits assumed): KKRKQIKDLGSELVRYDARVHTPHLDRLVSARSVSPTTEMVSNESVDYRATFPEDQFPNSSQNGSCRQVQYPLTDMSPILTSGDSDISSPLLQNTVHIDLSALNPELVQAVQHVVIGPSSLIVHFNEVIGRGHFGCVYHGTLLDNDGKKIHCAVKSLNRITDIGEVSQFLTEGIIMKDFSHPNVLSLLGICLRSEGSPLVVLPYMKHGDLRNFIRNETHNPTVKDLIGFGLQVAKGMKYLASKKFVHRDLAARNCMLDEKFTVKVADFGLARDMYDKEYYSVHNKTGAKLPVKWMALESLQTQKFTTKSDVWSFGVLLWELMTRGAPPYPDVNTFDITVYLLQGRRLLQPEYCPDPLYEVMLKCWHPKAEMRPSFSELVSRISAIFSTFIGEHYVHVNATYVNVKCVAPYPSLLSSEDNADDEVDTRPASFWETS

IC50 [1, 3]: < 100 nM
IC50 [2, 4]: > 10000 nM
Compound: COc1cc(N2CCOCC2)ccc1Nc1nc(Nc2ccc3c(c2OC)CCCC(N2CCOCC2)C3)ncc1Cl (centres unmarked) [Example 952, 5-Chloro-N(4)-(2-methoxy-4-morpholin-4-yl-phenyl)-N(2)-(1-methoxy-6-morpholin-4-yl-6,7,8,9-tetrahydro-5H-benzocyclohepten-2-yl)-pyrimidine-2,4-diamine]

IC50 [1, 5]: 100 to 1000 nM
IC50 [2, 6]: 1000 to 10000 nM
Compound: CC(C)S(=O)(=O)c1cccc(F)c1Nc1nc(Nc2ccc3c(c2)NC(=O)CCC3(C)C)ncc1Cl [Example 1251, 8-{5-Chloro-4-[2-fluoro-6-(propane-2-sulfonyl)-phenylamino]-2-ylamino}-5,5-dimethyl-1,3,4,5-tetrahydro-1-benzazepin-2-one]

IC50 [1, 3]: 1000 to 10000 nM
IC50 [2, 4]: > 10000 nM
Compound: COc1cc2c(cc1Nc1ncc(Cl)c(Nc3c(OC)ccc4c3CN(S(C)(=O)=O)CC(=O)N4)n1)CCN(CC(=O)N(C)C)CC2 [Example 751, 2-{7-[5-Chloro-4-(4-methanesulfonyl-7-methoxy-2-oxo-2,3,4,5-tetrahydro-1H-benzo[e][1,4]diazepin-6-ylamino)-pyrimidin-2-ylamino]-8-methoxy-1,2,4,5-tetrahydro-benzo[d]azepin-3-yl}-N,Ndimethyl-acetamide]

IC50 [1, 5]: < 100 nM
IC50 [2, 6]: 100 to 1000 nM
Compound: CCCNC(=O)c1ccccc1Nc1nc(Nc2ccc3c(c2)CCN(CCOC)CC3)ncc1Cl [Example 1023, 2-{5-Chloro-2-[3-(2-methoxy-ethyl)-2,3,4,5-tetrahydro-1H-benzo[d]azepin-7-ylamino]-pyrimidin-4-ylamino}-N-propyl-benzamide]

IC50 [1, 7]: 1000 to 10000 nM
IC50 [2, 8]: < 100 nM
Compound: CNC(=O)c1cccc(Cl)c1Nc1nc(Nc2ccc3c(c2)CCCC(=O)N3C)ncc1Cl [Example 352, 3-Chloro-2-[5-chloro-2-(1-methyl-2-oxo-2,3,4,5-tetrahydro-1H-benzo[b]azepin-7-ylamino)-pyrimidin-4-ylamino]-N-methyl-benzamide]

IC50 [1, 3]: < 100 nM
IC50 [2, 4]: > 10000 nM
Compound: COc1cc2c(cc1Nc1ncc(Cl)c(Nc3ccccc3S(=O)(=O)N(C)C)n1)CCN(C(=O)C1COCCO1)CC2 (centres unmarked) [Example 634, 2-{5-Chloro-2-[3-([1,4]dioxane-2-carbonyl)-8-methoxy-2,3,4,5-tetrahydro-1H-benzo[d]azepin-7-ylamino]-pyrimidin-4-ylamino}-N,N-dimethyl-benzenesulfonamide]

IC50 [1, 5]: < 100 nM
IC50 [2, 6]: < 100 nM
Compound: C#CCNC(=O)c1cccc(F)c1Nc1nc(Nc2ccc3c(c2)NC(=O)C(NC(=O)COC)CC3(C)C)ncc1Cl (centres unmarked) [Example 1293, 2-{5-Chloro-2-[3-(2-methoxy-acetylamino)-5,5-dimethyl-2-oxo-2,3,4,5-tetrahydro-1H-1-benzazepin-8-ylamino]-pyrimidin-4-ylamino}-3-fluoro-N-prop-2-ynyl-benzamide]

IC50 [1, 7]: < 100 nM
IC50 [2, 8]: < 100 nM
Compound: CNC(=O)c1ccccc1Nc1nc(Nc2ccc3c(c2)N(C)C(=O)CCC3)ncc1Cl [Example 108, 2-[5-Chloro-2-(1-methyl-2-oxo-2,3,4,5-tetrahydro-1H-benzo[b]azepin-8-ylamino)-pyrimidin-4-ylamino]-N-methyl-benzamide]

IC50 [1, 3]: < 100 nM
IC50 [2, 4]: > 10000 nM
Compound: COc1cc2c(cc1Nc1ncc(Cl)c(Nc3ccc(N4CCOCC4)cc3S(=O)(=O)N(C)C)n1)CCN(CC(=O)N(C)C)CC2 [Example 834, 2-{7-[5-Chloro-4-(2-dimethylsulfamoyl-4-morpholin-4-yl-phenylamino)-pyrimidin-2-ylamino]-8-methoxy-1,2,4,5-tetrahydro-benzo[d]azepin-3-yl}-N,N-dimethyl-acetamide]

IC50 [1, 3]: < 100 nM
IC50 [2, 4]: > 10000 nM
Compound: COCCN1CCc2cc(Nc3ncc(Cl)c(Nc4ccccc4-c4nccn4C)n3)c(OC)cc2CC1 [Example 986, 5-Chloro-N*2*-[8-methoxy-3-(2-methoxy-ethyl)-2,3,4,5-tetrahydro-1H-benzo[d]azepin-7-yl]-N*4*-[2-(1-methyl-1H-imidazol-2-yl)-phenyl]-pyrimidine-2,4-diamine]

IC50 [1, 9]: < 100 nM
IC50 [2, 10]: > 10000 nM
Compound: COc1cc2c(cc1Nc1ncc(Cl)c(NC3C4C=CC(C4)C3C(N)=O)n1)NC(=O)CN(Cc1ccccc1)C2 (centres unmarked) [Example 1652, 3-[2-(4-Benzyl-7-methoxy-2-oxo-2,3,4,5-tetrahydro-1H-benzo[e][1,4]diaz-epin-8-ylamino)-5-chloro-pyrimidin-4-ylamino]-bicyclo[2.2.1]hept-5-ene-2-carboxylic acid amide]

IC50 [1, 3]: < 100 nM
IC50 [2, 4]: > 10000 nM
Compound: N-((1R,2R)-2-{5-Chloro-2-[7-(2,2,2-trifluoro-ethylamino)-6,7,8,9-tetrahydro-5H-benzocyclohepten-2-ylamino]-pyrimidin-4-ylamino}-cyclohexyl)-methanesulfonamide [Example 676]

IC50 [1, 9]: 100 to 1000 nM
IC50 [2, 10]: < 100 nM
Compound: CNC(=O)c1cccc(F)c1Nc1nc(Nc2ccc3c(c2)NC(=O)CN(C(=O)OCc2ccccc2)C3)ncc1Cl [Example 1857, 8-[5-Chloro-4-(2-fluoro-6-methylcarbamoyl-phenylamino)-pyrimidin-2-ylamino]-2-oxo-1,2,3,5-tetrahydro-benzo[e][1,4]diazepine-4-carboxylic acid benzyl ester]

Compound: CCOC(=O)N1C2CCC1c1cc(Nc3ncc(Cl)c(Nc4ccccc4C(=O)NC)n3)c(Cl)cc1C2 (centres unmarked) [Example 74, 5-Chloro-4-[5-chloro-4-(2-methylcarbamoyl-phenylamino)-pyrimidin-2-ylamino]-12-aza-tricyclo[7.2.1.0*2,7*]dodeca-2(7),3,5-triene-12-carboxylic acid ethyl ester]
IC50 [1, 7]: 100 to 1000 nM
IC50 [2, 8]: > 10000 nM

IC50 [1, 7]: < 100 nM
IC50 [2, 8]: 1000 to 10000 nM
Compound: COc1cc(N2CCOCC2)ccc1Nc1nc(Nc2ccc3c(c2)CCN(C[C@@H](O)C(F)(F)F)CC3)ncc1Cl [Example 333, (R)-3-{7-[5-Chloro-4-(2-methoxy-4-morpholin-4-yl-phenylamino)-pyrimidin-2-ylamino]-1,2,4,5-tetrahydro-benzo[d]azepin-3-yl}-1,1,1-trifluoro-propan-2-ol]

IC50 [1, 9]: < 100 nM
IC50 [2, 10]: > 10000 nM
Compound: COc1cc2c(cc1Nc1ncc(Cl)c(N[C@H]3[C@@H](C(N)=O)[C@@H]4C=C[C@H]3C4)n1)CCN(CCN1CCOCC1)CC2 [Example 1529, (1S,2S,3R,4R)-3-{5-Chloro-2-[8-methoxy-3-(2-morpholin-4-yl-ethyl)-2,3,4,5-tetrahydro-1H-3-benzazepin-7-ylamino]-pyrimidin-4-ylamino}-bicyclo[2.2.1]hept-5-ene-2-carboxylic acid amide]

IC50 [1, 9]: < 100 nM
IC50 [2, 10]: 100 to 1000 nM
Compound: COc1cc2c(cc1Nc1ncc(Cl)c(Nc3ccccc3S(=O)(=O)N3CC[C@H](O)C3)n1)CCN(C[C@H](C)O)CC2 [Example 1555, (S)-1-(2-{5-Chloro-2-[3-((S)-2-hydroxy-propyl)-8-methoxy-2,3,4,5-tetrahydro-1H-3-benzazepin-7-ylamino]-pyrimidin-4-ylamino}-benzenesulfonyl)-pyrrolidin-3-ol]

IC50 [1, 7]: 100 to 1000 nM
IC50 [2, 8]: 100 to 1000 nM
Compound: CCN1CCc2ccc(Nc3ncc(Cl)c(N[C@@H]4CCCC[C@H]4NC(=O)N(C)C)n3)cc2CC1 [Example 447, 3-{(1R,2R)-2-[5-Chloro-2-(3-ethyl-2,3,4,5-tetrahydro-1H-benzo[d]azepin-7-ylamino)-pyrimidin-4-ylamino]-cyclohexyl}-1,1-dimethyl-urea]

IC50 [1, 3]: < 100 nM
IC50 [2, 4]: > 10000 nM
Compound: CCN(CCO)Cc1cc(Nc2nc(Nc3cc4c(cc3OC)CCN(CC(=O)N(C)C)CC4)ncc2Cl)ccc1F [Example 735, 2-{7-[5-Chloro-4-(3-{[ethyl-(2-hydroxy-ethyl)-amino]-methyl}-4-fluoro-phenylamino)-pyrimidin-2-ylamino]-8-methoxy-1,2,4,5-tetrahydro-benzo[d]azepin-3-yl}-N,N-dimethyl-acetamide]

IC50 [1, 7]: 100 to 1000 nM
IC50 [2, 8]: 1000 to 10000 nM
Compound: CN1CCNCc2cc(OCC(F)(F)F)c(Nc3ncc(Cl)c(N[C@@H]4CCCC[C@H]4NS(C)(=O)=O)n3)cc21 [Example 497, N-((1R,2R)-2-{5-Chloro-2-[1-methyl-7-(2,2,2-trifluoro-ethoxy)-2,3,4,5-tetrahydro-1H-benzo[e][1,4]diazepin-8-ylamino]-pyrimidin-4-ylamino}-cyclohexyl)-methanesulfonamide]

IC50 [1, 9]: 100 to 1000 nM
IC50 [2, 10]: < 100 nM
Compound: CCN1C(=O)C(NC(=O)COC)CCc2ccc(Nc3ncc(Cl)c(Nc4c(F)cccc4C(=O)NC)n3)cc21 (centres unmarked) [Example 1498, 2-{5-Chloro-2-[1-ethyl-3-(2-methoxy-acetylamino)-2-oxo-2,3,4,5-tetrahydro-1H-benzo[b]azepin-8-ylamino]-pyrimidin-4-ylamino}-3-fluoro-N-methyl-benzamide]

IC50 [1, 3]: 100 to 1000 nM
IC50 [2, 4]: 100 to 1000 nM
Compound: CN1C(=O)CCCc2cc(Nc3ncc(Cl)c(Nc4cccc5c4ncn5C)n3)ccc21 [Example 1007, 7-[5-Chloro-4-(1-methyl-1H-benzoimidazol-4-ylamino)-pyrimidin-2-ylamino]-1-methyl-1,3,4,5-tetrahydro-benzo[b]azepin-2-one]
